Assay: Film formation test
Assay type: physicochemical
Conditions: assessed visually; for Clear film / Notes (film-forming classification): 15% by weight solution in water, dried at 45° C. for 4 hours; for Structure formed after drying (film-forming property): 15% solution dried 4 hours at 45° C., statement in description
Experimental: In various embodiments, to determine the film-forming property, 30.0 g of a 15% strength by weight solution of the sugar or sugar alcohol in water are first prepared at 23° C. This solution is poured out onto glass plates with an indentation (dimension: 20 cm×6.5 cm, indentation 0.3 cm) and dried for 4 hours at 45° C. and then assessed visually. Measurement can take place in ambient air. The ambient air here has a relative humidity of about 40% at 23° C. Drying can take place for example, on the heating plate of a film-drawing instrument. A suitable film-drawing instrument is for example a commercial instrument such as the COATMASTER 509 MC.
Products which are present after the drying operation as a clear film or covering are referred to as “film-forming” If crystals are visible and the mass appears powdery, the substances are classified as “non-film-forming”
To determine the film-forming property, firstly, at 23° C., 30.0 g of a 15% strength by weight solution of the sugar or sugar alcohol in water were prepared. This solution was poured onto glass plates with an indentation (dimension: 20 cm×6.5 cm, indentation 0.3 cm) and dried at 45° C. for 4 hours and then assessed visually. […] Drying was carried out on a heating plate of the film-drawing instrument COATMASTER 509 MC (Erichsen).

Row | Clear film | Notes (film-forming classification) | Structure formed after drying (film-forming property) | Molecule
1 | Yes | Film-forming | clear film/covering | OC[C@@H](O)[C@@H](O[C@@H]1O[C@H](CO)[C@H](O)[C@H](O)[C@H]1O)[C@H](O)[C@@H](O)CO [Lactitol]
2 | – | – | clear film/covering | OC[C@H]1O[C@@H](O[C@H]2[C@H](O)[C@@H](O)C(O)O[C@@H]2CO)[C@H](O)[C@@H](O)[C@H]1O (stereo partly drawn) [lactose]
3 | – | – | clear film/covering | OC[C@H]1O[C@H](O[C@H]2O[C@H](CO)[C@@H](O)[C@H](O)[C@H]2O)[C@H](O)[C@@H](O)[C@@H]1O [trehalose]
4 | Yes | Film-forming | clear film/covering | Palatinit

Continued, molecule first:

Row | Molecule | Clear film | Notes (film-forming classification) | Structure formed after drying (film-forming property)
5 | OC[C@@H](O)[C@@H](O)CO [Erythritol] | No | Crystals; non-film-forming | crystals or a powdery structure
6 | OC[C@@H](O)[C@@H](O[C@H]1O[C@H](CO)[C@@H](O)[C@H](O)[C@H]1O)[C@H](O)[C@@H](O)CO [Maltitol] | Yes | Film-forming | clear film/covering
7 | OC[C@@H](O)[C@@H](O)[C@H](O)[C@H](O)CO [Mannitol] | No | Crystals; non-film-forming | crystals or a powdery structure
8 | OC[C@@H](O)[C@@H](O)[C@H](O)[C@@H](O)CO [Sorbitol] | Yes | Film-forming | clear film/covering
9 | OC[C@@H](O)[C@H](O)[C@@H](O)CO [Xylitol] | No | Crystals; non-film-forming | crystals or a powdery structure
10 | OC[C@H]1O[C@@](CO)(O[C@H]2O[C@H](CO)[C@@H](O)[C@H](O)[C@H]2O)[C@@H](O)[C@@H]1O [sucrose] | – | – | clear film/covering

— US20120231042A1, “Pharmaceutical Formulation For Producing Rapidly Disintegrating Tablets” (BASF SE, priority 2011, published 2012)
